As usually defined, the pEC50 is the negative decadic logarithm of the EC50, by convention in mol/L.

pEC50: −log10 of the molar value. Read-outs that look alike come from different tables or passages of the source. Numbered stars: 1 amine (or outer) side, 2 acyl side, 3 side chain; on linkers, the order of the positions; unused ones are H or OH. Square brackets hold non-standard residues; d marks the D form. Side chains are listed from the residue outwards. Peptide text beside a SMILES is read from it. * marks the point of attachment. γGlu = O=C(O)[C@H](CCC(=O)[*:2])N[*:1]; αMeF = C[C@](N)(Cc1ccccc1)C(=O)O; αMeK = C[C@](N)(CCCCN)C(=O)O; Lauroyl = CCCCCCCCCCCC(=O)*; αMeS = C[C@](N)(CO)C(=O)O; AEEA = NCCOCCOCC(=O)O; Aib = CC(C)(N)C(=O)O Bounds are passed on as bounds.

These results are taken from US20210221866A1, “PROTEASE-RESISTANT LIPIDATED GLP-1 ANALOGS” (MEDIMMUNE LIMITED, priority 2015, published 2021).

One data set in a line: in vitro. The following applies: isolated enzyme chymotrypsin, pH 7.8.
Data set [1] concerns the target T1, porcine pancreatic pepsin (Sus scrofa, UniProt P00791).
T1 construct: purchased Sigma P7012
Kind of data set: Proteolytic resistance to pepsin (% remaining intact peptide, RP-HPLC AUC). The class given is in vitro ADME. As to conditions: t = 0; 37° C., pH 2.0.

In the next data set the target is T2, recombinant Neprilysin (Homo sapiens, UniProt P08473).
T2 construct: purchased R&D Systems 1182-ZNC-010
T2 sequence (P08473 whole entry): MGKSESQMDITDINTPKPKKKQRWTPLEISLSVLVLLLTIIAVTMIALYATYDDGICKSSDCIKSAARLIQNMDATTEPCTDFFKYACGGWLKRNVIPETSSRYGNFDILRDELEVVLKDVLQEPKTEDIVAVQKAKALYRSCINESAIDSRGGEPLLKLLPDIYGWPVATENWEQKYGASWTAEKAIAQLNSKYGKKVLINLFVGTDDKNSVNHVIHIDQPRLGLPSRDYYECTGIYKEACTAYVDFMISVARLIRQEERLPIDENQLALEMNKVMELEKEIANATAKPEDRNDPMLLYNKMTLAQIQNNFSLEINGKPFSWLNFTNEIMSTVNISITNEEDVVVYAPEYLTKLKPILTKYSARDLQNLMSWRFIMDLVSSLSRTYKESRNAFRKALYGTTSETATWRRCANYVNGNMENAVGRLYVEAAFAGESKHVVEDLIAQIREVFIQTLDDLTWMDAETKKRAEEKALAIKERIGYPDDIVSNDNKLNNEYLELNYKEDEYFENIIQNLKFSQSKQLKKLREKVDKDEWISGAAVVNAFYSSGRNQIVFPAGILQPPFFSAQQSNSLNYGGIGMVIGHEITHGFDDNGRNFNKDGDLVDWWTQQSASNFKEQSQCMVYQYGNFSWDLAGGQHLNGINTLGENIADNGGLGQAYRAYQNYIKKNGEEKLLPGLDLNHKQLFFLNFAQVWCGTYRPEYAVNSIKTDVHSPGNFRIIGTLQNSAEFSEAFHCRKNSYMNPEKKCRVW
Kind of data set: Proteolytic resistance to neprilysin (% remaining peptide, RP-HPLC AUC). Format: in vitro ADME. The following applies: t = 0 (baseline); 37° C., pH 8.3; enzyme:peptide ~1:33 for non-lipidated, ~1:2.5 for lipidated peptides.

For data set [2], the target named is T3, human glucose-dependent insulinotropic peptide receptor (GIPR) (Homo sapiens, UniProt P48546).
T3 construct: expressed in transfected cells; host or cells: HEK293 cells or CHO cells
T3 sequence (P48546 22-466): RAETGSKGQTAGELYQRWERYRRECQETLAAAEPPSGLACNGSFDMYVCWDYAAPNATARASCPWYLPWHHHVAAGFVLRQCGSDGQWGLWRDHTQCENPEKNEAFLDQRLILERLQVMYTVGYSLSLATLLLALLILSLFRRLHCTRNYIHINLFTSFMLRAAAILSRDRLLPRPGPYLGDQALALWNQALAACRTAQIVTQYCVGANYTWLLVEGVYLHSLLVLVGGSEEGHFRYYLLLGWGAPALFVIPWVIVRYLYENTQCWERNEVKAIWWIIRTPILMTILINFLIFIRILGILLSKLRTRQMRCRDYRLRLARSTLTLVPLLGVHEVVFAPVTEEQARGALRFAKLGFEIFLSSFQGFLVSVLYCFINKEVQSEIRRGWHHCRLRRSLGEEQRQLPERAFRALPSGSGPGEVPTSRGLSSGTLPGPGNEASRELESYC
As to the kind of experiment: cAMP assay, human GIPR cells. Format: cell-based. As to conditions: Table 9, bis-lipidated peptides. A digest of the protocol:
(§1)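 Peptide-stimulated cAMP measured by two-step HTRF after a 30 min room-temperature incubation with receptor-expressing cells (hGLP-1R, hGIPR at 1×10^5 cells/ml; hGCGR at 2×10^5 cells/ml). Duplicate dilutions; EC50 from 4-parameter logistic fit of % Delta F.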
(Cyclic AMP is a second messenger, typically raised through Gs and lowered through Gi signalling.)

Data set [3] has as its system FASSIF/Pancreatin® activated with 100 μg/mL human enterokinase. As to the kind of experiment: Proteolytic resistance to FASSIF/Pancreatin following full zymogen activation with enterokinase. The following applies: t = 0; 37° C. Format: in vitro ADME. As to the method:
A fresh suspension of FASSIF/P (Fasted-State Simulated Intestinal Fluid+USP Pancreatin®) was prepared according to that described by Galia, Nicolaides, Hörter, Lobenberg, Reppas and Dressman: Pharm. […] To the resulting preparation was added human enterokinase (100 μg/mL) to ensure the potential for full zymogen activity of the mixture which was used immediately without storage. Peptides for evaluation (1.0 mg, ˜250 nmoles) were initially dissolved in pre-warmed FASSIF without Pancreatin® (200 μL) to which was added pre-warmed fresh FASSIF/Pancreatin® ([…]) to initiate potential digestion. Following momentary vortexing of the Eppendorf reaction tube the mixture was incubated at 37° C. in a thermostatic waterbath for the duration of the experiment. 25 μL aliquots of the co-incubated peptide-enzyme mixture were periodically withdrawn (t=0, 5 m, 10 m, 15 m, 30 m, 1 h, 2 h) and quenched immediately by addition to a solution of 10% TFA in 1:1 water/acetonitrile (75 μL) to arrest proteolytic activity.

The target of data set [4] is T4, human glucagon receptor (GCGR) (Homo sapiens, UniProt P47871).
T4 construct: expressed in transfected cells; host or cells: HEK293 cells or CHO cells
T4 sequence (P47871 26-477): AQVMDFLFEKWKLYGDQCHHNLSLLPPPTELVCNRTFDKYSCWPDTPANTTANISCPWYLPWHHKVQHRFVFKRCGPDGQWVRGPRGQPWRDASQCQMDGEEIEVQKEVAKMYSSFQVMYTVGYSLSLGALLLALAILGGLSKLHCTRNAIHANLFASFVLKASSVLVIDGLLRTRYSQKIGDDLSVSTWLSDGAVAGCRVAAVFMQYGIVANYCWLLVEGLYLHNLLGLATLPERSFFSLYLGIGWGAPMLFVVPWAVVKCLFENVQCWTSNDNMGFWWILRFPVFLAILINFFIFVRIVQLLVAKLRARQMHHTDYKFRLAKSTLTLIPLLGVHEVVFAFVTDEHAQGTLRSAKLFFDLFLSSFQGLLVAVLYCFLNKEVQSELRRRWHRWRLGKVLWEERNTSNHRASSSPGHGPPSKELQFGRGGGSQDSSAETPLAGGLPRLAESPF
As to the kind of experiment: cAMP assay, human GCGR cells. The class given is cell-based. The following applies: Table 9, bis-lipidated peptides. A digest of the protocol: as §1

The test system of data set [5] is FASSIF/P (Fasted-State Simulated Intestinal Fluid+USP Pancreatin®). Kind of data set: Proteolytic resistance to fasted-state simulated intestinal fluid (FASSIF/Pancreatin). The class given is in vitro ADME. As to conditions: t = 0; 37° C. A digest of the protocol:
(§2)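 Peptides (1.0 mg, ~250 nmoles) were incubated at 37 °C in freshly prepared fasted-state simulated intestinal fluid containing pancreatin (~375 units/mL preparation). Aliquots were taken at 0, 5, 10, 15, 30 min, 1 h and 2 h and quenched in 10% TFA in 1:1 water/acetonitrile.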

Assay in data set [6]: as above
The class given is in vitro ADME. The following applies: 37° C., read-out: Percentage remaining intact peptide (AUC by RP-HPLC) upon incubation with fasted-state simulated intestinal fluid (FASSIF/P). A digest of the protocol:
as §2

Data set [7] deals with recombinant α-chymotrypsin. Kind of data set: Proteolytic resistance to α-chymotrypsin (% remaining intact peptide, RP-HPLC AUC). The following applies: t = 0; 37° C., pH 7.8.
Protocol: (§3) Ratio enzyme (units):peptide (μmoles) ˜1:33. […] Ratio enzyme (units):peptide (μmoles) ˜1:2.5.
(§4) 15 μL aliquots (˜15 μg initial peptide) of the peptide-enzyme mixture are periodically withdrawn (t=0, 30 mins, 1 hr, 2 hr, 4 hr, 8 hr, 24 hr) and quenched immediately by addition to an equal volume (15 μL) of 5% TFA (v/v) in 1:1 water/acetonitrile to arrest proteolytic activity. 20 μL aliquots (˜10 μg initial peptide) are analysed by LC/MS and/or analytical RP-HPLC as follows: LC/MS method: Agilent Polaris C8-A column (4.6×100 mm, 3 micron) elutes with a linear binary gradient of 10-90% MeCN (0.1% TFA v/v) in water (0.1% TFA v/v) over 30 mins at 1.5 mL min^−1 at ambient temperature with detection by both UV absorption at 210 nm and ionization using a Waters 3100 mass detector (ESI^+ mode). Peptide fragments deriving from enzymatic hydrolysis are identified by molecular weight, allowing location of the site of cleavage. Analytical RP-HPLC method: Agilent Polaris C8-A column (4.6×100 mm, 3 micron) elutes with a linear binary gradient of 10-90% MeCN (0.1% TFA v/v) in water (0.1% TFA v/v) over either 10 or 15 mins at 1.5 mL min^−1 at 40° C. with detection by UV absorption at 210 nm. Manual integration (AUC) allows estimation of remaining intact peptide over the time course of the experiment.
(§5) 25 μL aliquots (˜6 μg initial peptide) are analysed by LC/MS and/or analytical RP-HPLC as follows: LC/MS method: Agilent Polaris C8-A column (4.6×100 mm, 3 micron) elutes with a linear binary gradient of 10-90% MeCN (0.1% TFA v/v) in water (0.1% TFA v/v) over 30 mins at 1.5 mL min^−1 at ambient temperature with detection by both UV absorption at 210 nm and ionization using a Waters 3100 mass detector (ESI±mode). Peptide fragments deriving from enzymatic hydrolysis are identified by molecular weight, allowing location of the site of cleavage. Analytical RP-HPLC method: Agilent Polaris C8-A column (4.6×100 mm, 3 micron) elutes with a linear binary gradient of 10-90% MeCN (0.1% TFA v/v) in water (0.1% TFA v/v) over either 10 or 15 mins at 1.5 mL min^−1 at 40° C. with detection by UV absorption at 210 nm. Manual integration (AUC) allows estimation of remaining intact peptide over the time course of the experiment.
Assay in data set [8]: as above
Protocol: as §3, §4, §5
As to conditions: recombinant α-chymotrypsin in assay buffer, pH 7.8.

In data set [9] the target is porcine pancreatic trypsin (Sus scrofa, UniProt P00761). Kind of data set: Proteolytic resistance to trypsin (% remaining intact peptide, RP-HPLC AUC). The class given is in vitro ADME. The following applies: t = 0; 37° C., pH 7.8.
Chain of porcine pancreatic trypsin (P00761 9-231): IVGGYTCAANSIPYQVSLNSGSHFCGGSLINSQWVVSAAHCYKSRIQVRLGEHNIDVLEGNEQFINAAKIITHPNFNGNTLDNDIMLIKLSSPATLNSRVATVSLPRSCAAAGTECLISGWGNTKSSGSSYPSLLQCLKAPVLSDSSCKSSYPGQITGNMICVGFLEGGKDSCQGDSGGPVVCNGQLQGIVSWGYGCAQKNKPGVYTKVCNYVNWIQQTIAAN
Protocol: Trypsin: Lyophilized porcine pancreatic trypsin (Sigma: T1426) was reconstituted to afford a solution of 100 μg/mL (˜300 units/mL) in assay buffer (50 mM Tris, 10 mM CaCl2), 150 mM NaCl, 1 mM HCl, adjusted to pH 7.8) to give the enzyme stock solution. […] Ratio enzyme (units):peptide (μmoles) ˜1:11. […] Ratio enzyme (units):peptide (μ moles) ˜1.2:1.
Lyophilized porcine pancreatic trypsin (Sigma: T7409) was reconstituted to 200 μg/mL (˜300 units/mL) in assay buffer (50 mM Tris, 10 mM CaCl2), 150 mM NaCl, 1 mM HCl, adjusted to pH 7.8) to give the enzyme stock solution. […] 15 μL aliquots (˜15 μg initial peptide) of the peptide-enzyme mixture were periodically withdrawn (t=0, 30 mins, 1 hr, 2 hr, 4 hr, 8 hr, 24 hr) and quenched immediately by addition to an equal volume (15 μL) of 5% TFA (v/v) in 1:1 water/acetonitrile to arrest proteolytic activity. 20 μL aliquots (˜10 μg initial peptide) were analysed by LC/MS and/or analytical RP-HPLC as follows: LC/MS method: Agilent Polaris C8-A column (4.6×100 mm, 3 micron) eluted with a linear binary gradient of 10-90% MeCN (0.1% TFA v/v) in water (0.1% TFA v/v) over 30 mins at 1.5 mL min^−1 at ambient temperature with detection by both UV absorption at 210 nm and ionization using a Waters 3100 mass detector (ESI^+ mode). Peptide fragments deriving from enzymatic hydrolysis were identified by molecular weight, allowing location of the site of cleavage. Analytical RP-HPLC method: Agilent Polaris C8-A column (4.6×100 mm, 3 micron) eluted with a linear binary gradient of 10-90% MeCN (0.1% TFA v/v) in water (0.1% TFA v/v) over either 10 or 15 mins at 1.5 mL min^−1 at 40° C. with detection by UV absorption at 210 nm. Manual integration (AUC) allowed estimation of remaining intact peptide over the time course of the experiment.
Lyophilized porcine pancreatic trypsin (Sigma: T7409) was reconstituted to 200 μg/mL (˜300 units/mL) in assay buffer (50 mM Tris, 10 mM CaCl2), 150 mM NaCl, 1 mM HCl, adjusted to pH 7.8) to give the enzyme stock solution. […] 25 μL aliquots (˜17 μg initial peptide) of the peptide-enzyme mixture were periodically withdrawn (t=0, 30 mins, 1 hr, 2 hr, 4 hr, 8 hr, 24 hr) and quenched immediately by addition to an equal volume (25 μL) of 5% TFA (v/v) in 1:1 water/acetonitrile to arrest proteolytic activity. 25 μL aliquots (˜8 μg initial peptide) were analysed by LC/MS and/or analytical RP-HPLC as follows: LC/MS method: Agilent Polaris C8-A column (4.6×100 mm, 3 micron) eluted with a linear binary gradient of 10-90% MeCN (0.1% TFA v/v) in water (0.1% TFA v/v) over 30 mins at 1.5 mL min^−1 at ambient temperature with detection by both UV absorption at 210 nm and ionization using a Waters 3100 mass detector (ESI^+ mode). Peptide fragments deriving from enzymatic hydrolysis were identified by molecular weight, allowing location of the site of cleavage. Analytical RP-HPLC method: Agilent Polaris C8-A column (4.6×100 mm, 3 micron) eluted with a linear binary gradient of 10-90% MeCN (0.1% TFA v/v) in water (0.1% TFA v/v) over either 10 or 15 mins at 1.5 mL min^−1 at 40° C. with detection by UV absorption at 210 nm. Manual integration (AUC) allowed estimation of remaining intact peptide over the time course of the experiment.

T1 sequence (P00791 60-385): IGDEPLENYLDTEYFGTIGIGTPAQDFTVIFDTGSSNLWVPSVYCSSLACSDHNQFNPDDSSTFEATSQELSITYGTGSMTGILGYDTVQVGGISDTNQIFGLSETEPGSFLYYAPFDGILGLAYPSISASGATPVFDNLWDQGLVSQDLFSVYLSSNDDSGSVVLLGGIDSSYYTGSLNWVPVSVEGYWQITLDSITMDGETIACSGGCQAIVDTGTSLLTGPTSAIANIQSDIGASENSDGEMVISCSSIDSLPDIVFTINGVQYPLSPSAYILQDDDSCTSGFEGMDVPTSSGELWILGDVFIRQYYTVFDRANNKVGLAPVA
Protocol for in vitro: as §3, §4, §5

Compound `CCCCCCCCCCCCCCCC(=O)N[C@@H](CCC(=O)NCCCC[C@H](NC(=O)[C@H](C)NC(=O)[C@H](C)NC(=O)[C@H](CCC(N)=O)NC(=O)CNC(=O)[C@H](CCC(=O)O)NC(=O)[C@H](CC(C)C)NC(=O)[C@H](Cc1ccc(O)cc1)NC(=O)[C@H](CO)NC(=O)[C@H](CO)NC(=O)[C@@H](NC(=O)[C@H](CC(=O)O)NC(=O)[C@H](CO)NC(=O)[C@@H](NC(=O)[C@H](Cc1ccccc1)NC(=O)[C@@H](NC(=O)CNC(=O)[C@H](CCC(=O)O)NC(=O)[C@H](C)NC(=O)[C@@H](N)Cc1cnc[nH]1)[C@@H](C)O)[C@@H](C)O)C(C)C)C(=O)N[C@@H](CCC(=O)O)C(=O)N[C@@H](Cc1ccccc1)C(=O)N[C@H](C(=O)N[C@@H](C)C(=O)N[C@@H](Cc1c[nH]c2ccccc12)C(=O)N[C@@H](CC(C)C)C(=O)N[C@H](C(=O)N[C@@H](CCCNC(=N)N)C(=O)NCC(=O)N[C@@H](CCCNC(=N)N)C(=O)NCC(=O)O)C(C)C)[C@@H](C)CC)C(=O)O` [Liraglutide] returned a remaining at 1 h in the data set “in vitro” of 95.6%.

Take `CCCCCCCCCCCC(=O)N[C@@H](CCC(=O)NCCOCCOCC(=O)NCCOCCOCC(=O)NCCCC[C@H](NC(=O)[C@H](C)NC(=O)[C@@H](NC(=O)[C@H](Cc1ccccc1)NC(=O)[C@H](CCC(=O)O)NC(=O)[C@](C)(CCCCN)NC(=O)[C@H](C)NC(=O)[C@H](C)NC(=O)[C@H](CCC(=O)O)NC(=O)CNC(=O)[C@H](CCC(=O)O)NC(=O)[C@H](CC(C)C)NC(=O)[C@H](CCCCNC(=O)COCCOCCNC(=O)COCCOCCNC(=O)CC[C@H](NC(=O)CCCCCCCCCCC)C(=O)O)NC(=O)[C@H](CO)NC(=O)[C@](C)(CO)NC(=O)[C@@H](NC(=O)[C@H](CC(=O)O)NC(=O)[C@H](CO)NC(=O)[C@@H](NC(=O)[C@](C)(Cc1ccccc1)NC(=O)[C@H](CO)NC(=O)CNC(=O)[C@H](CCC(=O)O)NC(=O)C(C)(C)NC(=O)[C@@H](N)Cc1c[nH]cn1)[C@@H](C)O)C(C)C)[C@@H](C)CC)C(=O)N[C@H](C(=O)N[C@H](C(=O)N[C@@H](CCC(=O)O)C(=O)NCC(=O)NCC(N)=O)C(C)C)C(C)C)C(=O)O` [compound 263] (H-H[Aib]EGS[αMeF]TSDV[αMeS]SK([AEEA-AEEA-γGlu-Lauroyl])LEGEAA[αMeK]EFIAK([AEEA-AEEA-γGlu-Lauroyl])VVEGG-NH2): the “Percentage remaining intact peptide (AUC by RP-HPLC) upon incubation with pepsin” value in data set [1] was 100%. Besides, at recombinant Neprilysin, the “Percentage remaining peptide (AUC at specified time-point by RP-HPLC) upon incubation with neprilysin, t = 0” value is 100%. Also, the pEC50 in [2] (first replicate, read-out: Primary assay EC50 GIP-R (n1)) is ≤ 7.67. The negative logarithm of the EC50 (pEC50) in data set [2] (second replicate, read-out: Primary assay EC50 GIP-R (n2)) is ≤ 7.67. The “Percentage remaining intact peptide (AUC by RP-HPLC) upon incubation with FASSIF activated with 100 μg/mL enterokinase” value in data set [3] turned out to be 100%. The pEC50 in [4] (first replicate, read-out: Primary assay EC50 Gluc-R (n1)) is ≤ 7.67. In data set [4] (second replicate, read-out: Primary assay EC50 Gluc-R (n2)), the pEC50 is ≤ 7.67. Also, the “Percentage remaining intact peptide (AUC by RP-HPLC) upon incubation with fasted-state simulated intestinal fluid (FASSIF/P)” value in data set [5] is recorded as 100%. Also, the remaining at 10 min, […] in data set [6] (t = 10 m) is 85.6%. Also, the remaining at 0.25 h, […] in data set [6] (t = 15 m) is 76.8%. In addition, in [6] (t = 30 m), the remaining at 0.5 h, […] is 57.6%. Moreover, the remaining at 2 h, […] in data set [6] (t = 2 h) is 7.8%. The “Percentage remaining intact peptide (AUC by RP-HPLC) upon incubation with α-chymotrypsin” value in data set [7] is 100%. In [8], the remaining at 0.5 h was 88.1%, the remaining at 1 h worked out at 93.9%, the remaining at 4 h turned out to be 93.5% and the remaining at 8 h stood at 95%. Moreover, in [8], the remaining at 24 h is 92.3%. Moreover, the “Percentage remaining intact peptide (AUC by RP-HPLC) upon incubation with trypsin” value in data set [9] is 100.0%.
